Experimental data as given in patent US12030888B2, “Himastatin derivatives, and processes of preparation thereof, and uses thereof” (priority 2021, dated 2024).
Converted amounts (≈) assume the structure as drawn. Where two headings read alike, the source gives them in different places.

Tests used:
[1] = test system: Methicillin-Sensitive S. aureus (Newman); assay type: cell-based, Staphylococcus aureus
Method: (§1) Bacillus subtilis subsp. spizizenii (ATCC 6633) and Streptomyces himastatinicus (ATCC 53653) were obtained from the American Type Culture Collection (ATCC). Methicillin-resistant and methicillin-susceptible Staphylococcus aureus (Newman), and vancomycin-resistant (V583) and vancomycin-susceptible (T7) Enterococcus faecalis were obtained from the lab of Dr. Roby P. Bhattacharyya (Massachusetts General Hospital).^6 B. subtilis was grown in brain-heart infusion (BHI) medium at 37° C., S. himastatinicus was grown in tryptone-yeast extract broth (ISP medium 2) at 28° C., E. faecalis was grown in Todd-Hewitt broth, and all other organisms were grown in lysogeny broth (LB) medium at 37° C.
(§2) Minimum inhibitory concentration (MIC) was determined using the broth microdilution method. 20-fold stocks of compound in DMSO were diluted 10-fold in MHB medium and 100 μL of each were added to the first well of a 96-well plate. 50 μL of the first well was then serially diluted through 50 μL MHB medium in wells 2-11. To prepare the bacterial culture, an overnight culture was diluted in MHB until the turbidity matched that of McFarland standard 0.5. Then, the culture was diluted 1:100 and added to wells 1-11, resulting in 2-fold dilutions of antibiotic beginning at 64 μg/mL and a final inoculum of 5×10^5 cfu/mL. 100 μL of MHB medium was added to well 12 as a sterility control, and a row containing no antibiotic was used as a growth control. The plate was incubated at the organism's respective growth temperature overnight (B. subtilis) or 72 h (S. himastatinicus) and the MIC was determined using OD600.
(§3) Minimum inhibitory concentration (MIC) was determined using the broth microdilution method.^7 20-fold (1.28 mg/mL) stocks of compound in dimethylsulfoxide, stored as frozen (−80° C.) 30-μL aliquots, were diluted 10-fold in Mueller Hinton broth (MHB) and a 100-μL sample of each was added to the first well of a 96-well plate. A 50-μL sample of the first well was then serially diluted two-fold through 50-μL NMB medium in wells 2-11. A bacterial culture was prepared from a frozen (−80° C.) stock in the organism's respective growth medium and grown overnight. The culture was then diluted in MHB until the turbidity matched that of McFarland standard 0.5 by measuring the optical density at 600 nm (1×10^8 cfu/mL). Then, the culture was diluted 1:100 and a 50-μL aliquot was added to wells 1-11, resulting in 2-fold dilutions of antibiotic from 64 μg/mL down to 0.0625 μg/mL and a final inoculum of 5×10^5 cfu/mL. A 100-μL aliquot of MHB medium was added to well 12 as a sterility control, and a row containing no antibiotic was used as a growth control. The plate was incubated at the organism's respective growth temperature overnight or 72 h (S. himastatinicus). The MIC was determined by observing the well density by eye and, with the exception of S. himastatinicus which grows in solid colonies in media, was confirmed by measuring the optical density of each well at 600 nm. At least two assays were conducted for each organism on identical lots of compound. No degradation of compound stocks in dimethylsulfoxide was observed by LC-MS analysis after being subjected to multiple freeze-thaw cycles.

[2] = test system: Methicillin-Resistant Staphylococcus aureus; assay type: cell-based
Method: as §1, §2, §3

[3] = test system: Streptomyces himastatinicus (ATCC 53653); assay type: cell-based
Method: as §1, §2, §3

[4] = test system: Bacillus subtilis (ATCC 6633); assay type: cell-based
Method: as §1, §2, §3

[5] = test system: Vancomycin-Resistant Enterococcus faecalis (V583); assay type: cell-based
Method: as §1, §2, §3

[6] = test system: Vancomycin-Sensitive E. faecalis (T7); assay type: cell-based, Enterococcus faecalis
Method: as §1, §2, §3

B. subtilis (ATCC 6633) = assay: Microscopy of membrane morphology at sub-lethal concentration, FM 4-64 stain; assay type: cell-based, Bacillus subtilis; details: sub-lethal concentration 0.25 μg/mL, 3 h at 37 °C
Method: B. subtilis (ATCC 6633) was used for all microscopy experiments. For time-course studies at lethal concentration, culture containing 1 μg/mL FM 4-64 was combined with medium containing himastatin before being immediately added to a 1% agarose pad containing 0.5 μg/mL sytox green (Invitrogen). One section of the agarose pad was then imaged every 5 minutes to monitor cell death. For studies of morphological changes in sub-lethal concentrations, culture was incubated with 0.25 μg/mL (−) or (+)-himastatin for 3 h at 37 C, before being combined with FM 4-64 and added to an agarose pad containing sytox green. Images were collected on a Zeiss AxioPlan2 upright microscope using phase-contrast and equipped with a Hamamatsu Orca-ER cooled CCD camera using standard filter sets for GFP (to visualize SYTOX green; excitation 470/40 nm and emission 525/50 nm), TxRED (to visualize FM 4-64; excitation 565/40 and emission 620/60 nm), and DIC (for phase-contrast). Additional imaged were collected with an RPI Spinning Disk Confocal microscope equipped with a Hamamatsu Orca-ER cooled CCD camera using standard filter sets for GFP (488 nm laser, emission 525/50 nm), RFP (561 nm laser, emission 605/70 nm), and brightfield.
B. subtilis (ATCC 6633) in Mueller Hinton broth (NMB) was used for all microscopy experiments. For time-course studies with natural himastatin at lethal concentration, a bacterial culture matching the optical density of McFarland standard 0.5 (1×10^8 cfu/mL) was supplemented with 1 μg/mL FM 4-64 before being combined with medium containing (−)- or (+)-himastatin (1) (2 μg/mL) immediately before imaging on a 1% agarose pad containing 0.5 μg/mL SYTOX Green (Invitrogen). One section of the agarose pad was then imaged every 5 min to monitor cell death. For studies of morphological changes in bacteria treated with sub-lethal concentrations, culture was incubated with 0.25 μg/mL (−)- or (+)-himastatin (1) for 3 h at 37° C., before being supplemented with 1 μg/mL FM 4-64 and added immediately to an agarose pad. […]

Gram-positive bacteria = assay type: cell-based; details: for antibiotic activity (in words): relative to (−)-himastatin (1) where a derivative
Method: as §1, §2, §3

[7] = early investigation (ref. vii); cited from earlier work

| Compound | antibiotic activity (in words) (Gram-positive bacteria) | MIC (μg/mL) MSSA ([1]; Newman) | MIC (μg/mL) MRSA ([2]; Methicillin-Resistant) | MIC (μg/mL) S. himastatinicus ([3]; ATCC 53653, 72 h) | MIC (μg/mL) B. subtilis ([4]; ATCC 6633) | MIC (μg/mL) VRE faecalis ([5]; Vancomycin-Resistant (V583)) | MIC (μg/mL) VSE faecalis ([6]; Vancomycin-Sensitive (T7)) | also measured |
| --- | --- | --- | --- | --- | --- | --- | --- | --- |
| CC(C)C[C@H]1NC(=O)[C@@H]2C[C@H](O)CNN2C(=O)[C@@H](C(C)C)OC(=O)[C@H](C(C)C)NC(=O)[C@H]2C[C@]3(O)c4cc(-c5ccc6c(c5)[C@@]5(O)C[C@@H]7C(=O)N[C@@H](C(C)C)C(=O)O[C@H](C(C)C)C(=O)N8NC[C@@H](O)C[C@H]8C(=O)N[C@H](CC(C)C)C(=O)N[C@@H]([C@@H](C)O)C(=O)N7[C@H]5N6)ccc4N[C@@H]3N2C(=O)[C@H]([C@@H](C)O)NC1=O [(+)-1, Ent-Himastatin] |  |  |  |  |  |  |  | MIC (μg/mL) MSSA ([1]; broth microdilution, Methicillin-Sensitive S. aureus (Newman), n ≥ 2): 2 µg/mL (≈ 1.35 µM); MIC (μg/mL) MRSA ([2]; broth microdilution, Methicillin-Resistant Staphylococcus aureus, n ≥ 2): 4 µg/mL (≈ 2.69 µM); activity against the producing organism Streptomyces himastatinicus (in words) [3]: completely evade its own resistance mechanism and inhibit its growth; MIC (μg/mL) S. himastatinicus ([3]; broth microdilution, Streptomyces himastatinicus (ATCC 53653), 72 h, n ≥ 2): 0.5 µg/mL (≈ 0.337 µM); fold more active in inhibiting the growth of Streptomyces himastatinicus compared to (−)-himastatin (1) ([3]; relative to (−)-himastatin (1)): 4-8 fold; MIC (μg/mL) B. subtilis ([4]; broth microdilution, Bacillus subtilis (ATCC 6633), growth inhibition determined by eye, n ≥ 2): 0.5 µg/mL (≈ 0.337 µM); MIC (μg/mL) VRE faecalis ([5]; broth microdilution, Vancomycin-Resistant Enterococcus faecalis (V583), n ≥ 2): 2 µg/mL (≈ 1.35 µM); MIC (μg/mL) VSE faecalis ([6]; broth microdilution, Vancomycin-Sensitive E. faecalis (T7), n ≥ 2): 1 µg/mL (≈ 0.673 µM); membrane morphology (FM 4-64) (B. subtilis (ATCC 6633); listed as (+)-ent-himastatin): identical; membrane morphology (FM 4-64) (B. subtilis (ATCC 6633); listed as ent-(+)-himastatin): visual membrane defects |
| CC(C)C[C@@H]1NC(=O)[C@H]2C[C@@H](O)CNN2C(=O)[C@H](C(C)C)OC(=O)[C@@H](C(C)C)NC(=O)[C@@H]2C[C@@]3(O)c4cc(-c5ccc6c(c5)[C@]5(O)C[C@H]7C(=O)N[C@H](C(C)C)C(=O)O[C@@H](C(C)C)C(=O)N8NC[C@H](O)C[C@@H]8C(=O)N[C@@H](CC(C)C)C(=O)N[C@H]([C@H](C)O)C(=O)N7[C@@H]5N6)ccc4N[C@H]3N2C(=O)[C@@H]([C@H](C)O)NC1=O [(−)-1, (−)-Himastatin, reference compound] | potent antibiotic activity |  |  |  |  |  |  | MIC in Bacillus subtilis ([4]; text and figure legend): 1 µg/mL (≈ 0.673 µM); MIC values (Gram-positive bacteria): 1 to 2 µg/mL; antibiotic activity in the presence of sodium salts of phospholipids and fatty acids [7]: reduced; membrane morphology (FM 4-64) (B. subtilis (ATCC 6633)): visual membrane defects |
| CC(C)C[C@@H]1NC(=O)[C@H]2CCCN2C(=O)[C@H](C(C)C)OC(=O)[C@@H](C(C)C)NC(=O)[C@@H]2C[C@@]3(O)c4cc(-c5ccc6c(c5)[C@]5(O)C[C@H]7C(=O)N[C@H](C(C)C)C(=O)O[C@@H](C(C)C)C(=O)N8CCC[C@@H]8C(=O)N[C@@H](CC(C)C)C(=O)N[C@H]([C@H](C)O)C(=O)N7[C@@H]5N6)ccc4N[C@H]3N2C(=O)[C@@H]([C@H](C)O)NC1=O [(−)-30, Himastatin Proline Derivative] | complete abolishment of antibiotic activity | >64 µg/mL | >64 µg/mL | >64 µg/mL | >64 µg/mL | >64 µg/mL | >64 µg/mL | antibiotic activity (in words) (Gram-positive bacteria; listed as (−)-19): antibiotic activity was completely abolished |
| CC(C)[C@@H]1OC(=O)[C@@H](C(C)C)NC(=O)[C@@H]2C[C@@]3(O)c4cc(-c5ccc6c(c5)[C@]5(O)C[C@H]7C(=O)N[C@H](C(C)C)C(=O)O[C@@H](C(C)C)C(=O)N8NC[C@H](O)C[C@@H]8C(=O)N[C@@H](CCCCN=[N+]=[N-])C(=O)N[C@H]([C@H](C)O)C(=O)N7[C@@H]5N6)ccc4N[C@H]3N2C(=O)[C@@H]([C@H](C)O)NC(=O)[C@H](CCCCN=[N+]=[N-])NC(=O)[C@H]2C[C@@H](O)CNN2C1=O [(−)-32, Himastatin ε-Azidolysine Derivative] | essentially no impact on the antibiotic activity | 1 µg/mL (≈ 0.638 µM) | 2 µg/mL (≈ 1.28 µM) | 8 µg/mL (≈ 5.1 µM) | 2 µg/mL (≈ 1.28 µM) | 1 µg/mL (≈ 0.638 µM) | 0.5 µg/mL (≈ 0.319 µM) |  |
